The record followed here is US11179407B2, “Method for synthetically producing arabinogalactan compounds derived from plants and uses of said compounds for the prophylaxis of allergic reactions” (Forschungszentrum Borstel Leibniz-Zentrum für Medizin und …, priority 2015, dated 2021).

Structures are written as SMILES.

Assay [1] has as its system IL-5 and IL-13 production by spleen cells. Kind of assay: in vitro cytokine production (IL-5, IL-13) of mouse splenocytes re-stimulated with OVA after in vivo treatment. Further details: species or system mouse (BALB/c). The following applies: FIG. 3, i.n. treatment during sensitization and challenge. As to the method: (§1) Mice were sensitized by intraperitoneal injection of 20 μg ovalbumin (OVA; GradeV; Sigma, St. Louis, Mo.) emulsified in 2.2 mg aluminum hydroxide (ImjectAlum; Pierce, Rockford, Ill.) in a total volume of 200 μl on days 1 and 14. On days 28 and 38 mice were challenged via the airways with 1% OVA aerosol for 20 min using a PARI-Boy aerosol generator.
(§2) Mice were treated with the synthetic substances during the sensitization phase. Substances were administered intranasally in 50 μl of PBS. Mice were treated 14 times beginning on the day of the first OVA injection and the last treatment six days before the second OVA-aerosol challenge. Control groups were sensitized as described above and treated 14 times with phosphate buffered saline (PBS).
Spleens were harvested 3 days after the second aerosol challenge. Single cell suspensions were prepared by mechanical disruption and erythrocytes were lysed. Spleen cells were then cultured at a concentration of 5×10^6/ml in complete tissue culture medium (CTCM) (RPMI 1640 with 10% fetal calf serum (FCS), 2 mM L-glutamine, 100 U/ml penicillin, 100 μg/ml streptomycin, all from Biochrom, Berlin, Germany). To stimulate specific cytokine production OVA was added to a final concentration of 50 μg/ml. […] Levels of IL-5 and IL-13 were assessed by using optEIA kits (BD Biosciences, Heidelberg, Germany) according to the manufacturer's instructions.

The test system of a further assay is IgE. Kind of assay: total IgE in BAL fluid by ELISA in OVA/Alum mouse model. In kind it is in vivo, mouse (BALB/c). The following applies: FIG. 3, i.n. treatment. As to the method:
as §1, §2
Blood was collected by tail vein puncture two days after the second aerosol challenge. BAL was collected as described above. Levels of total IgE in serum or BAL fluid were determined by ELISA (Ebioscience). Levels of BSA-specific IgG1 were determined by indirect ELISA. Briefly, plates were coated with 50 μg/ml BSA followed by blocking with 1% low fat milk powder. The serum was diluted 1/100 in PBS and incubated on the BSA coated wells for 1 h, followed by detection of bound antibodies by alkaline phosphatase coupled rat anti mouse IgG1 (BDbiosciences).
For orientation: In an ELISA, binding on a coated surface is turned into a signal by an enzyme label.

The test system of assay [2] is allergic airway inflammation. Kind of assay: mouse model of allergic airway inflammation (OVA/Alum sensitization, OVA aerosol challenge): BAL cells and lung sections. In kind it is in vivo, mouse (BALB/c). On the procedure: Female BALB/c mice (Charles River, Sulzfeld, Germany) aged 7-8 weeks were used and acclimated to the animal facility for 14 days prior to experiments. Animals had access to food and water ad libitum. All experimental procedures were approved by the responsible animal ethics committees. Mice were sensitized by intraperitoneal injection of 20 μg ovalbumin (OVA; GradeV; Sigma, St. Louis, Mo.) emulsified in 2.2 mg aluminum hydroxide (ImjectAlum; Pierce, Rockford, Ill.) in a total volume of 200 μl on days 1 and 14. On days 28 and 38 mice were challenged via the airways with 1% OVA aerosol for 20 min using a PARI-Boy aerosol generator. Mice were treated with the synthetic substances during the sensitization phase. Substances were administered intranasally in 50 μl of PBS. Mice were treated 14 times beginning on the day of the first OVA injection and the last treatment six days before the second OVA-aerosol challenge. Control groups were sensitized as described above and treated 14 times with phosphate buffered saline (PBS). Three days after OVA challenge lungs were lavaged via a tracheal tube with 2×1 ml PBS, and leukocytes in the lavage fluid were counted. After centrifugation, BAL fluid was frozen for further analysis. […] The percentages of eosinophils, lymphocytes and macrophages in BAL samples were determined by light microscopy. […]

In the case of `OCC1O[C@@H](OCC2O[C@@H](OCC3O[C@@H](OCCCCCc4ccc(N=C=S)cc4)C(O)C(O)[C@H]3O)C(O)C(O[C@H]3O[C@@H](CO[C@@H]4O[C@@H](CO)C(O)C4O)C(O)C3O)[C@H]2O)C(O)C(O)[C@H]1O` (stereo partly shown) [Araf2Galp3], the “Th2 response as measured by in vitro production of IL-5 and IL-13 by spleen cells” value in assay [1] is on record as “not able to reduce these parameters significantly”. Further, the IgE production result with IgE is reported as “not able to reduce these parameters significantly”. Moreover, the eosinophilic airway inflammation entry in assay [2] (FIG. 3, i.n. treatment, BAL) was “not able to reduce these parameters significantly”. Moreover, in assay [2] (FIG. 3 experiment, determined in lung sections), the goblet cell metaplasia result was “not able to reduce these parameters significantly”.
